Reference: US10363239B2, “Method for inhibiting growth of cancer cells” (Pain Therapeutics, Inc., priority 2013, dated 2019)

Biological target: FLNA pentapeptide of SEQ ID NO: 1 (Bn-VAKGL) (Homo sapiens, UniProt P21333)
Assay: FITC-NLX-based FLNA screening assay (inhibition of FITC-naloxone binding to Bn-VAKGL on streptavidin plates)
Conditions: FLNA-binding compound 0.01 μM; 10 nM FITC-NLX; read-out: Percent Binding Inhibition

Compound | inhibition at 0.01 µM [%]
COc1ccc(OCC(O)CN2CCOc3ccccc32)cc1 (centres unmarked) [Compound A0076] | 36.1
CC(=O)c1ccc(C(=O)N2CCOC23CCN(S(=O)(=O)c2ccc(C(C)=O)cc2)CC3)cc1 [Compound C0053] | 28.9
CCCCc1ccc(S(=O)(=O)N2CCC3(CC2)OCCN3S(=O)(=O)c2ccc(CCCC)cc2)cc1 [Compound C0030] | 37.4

Same assay, conditions: FLNA-binding compound 0.1 μM; 10 nM FITC-NLX; read-out: Percent Binding Inhibition

Compound | inhibition at 0.1 µM [%]
COc1ccc(OCC(O)CN2CCOc3ccccc32)cc1 (centres unmarked) [Compound A0076] | 40
CC(=O)c1ccc(C(=O)N2CCOC23CCN(S(=O)(=O)c2ccc(C(C)=O)cc2)CC3)cc1 [Compound C0053] | 33.8
CCCCc1ccc(S(=O)(=O)N2CCC3(CC2)OCCN3S(=O)(=O)c2ccc(CCCC)cc2)cc1 [Compound C0030] | 45.4

Same assay, conditions: FLNA-binding compound 1 μM; 10 nM FITC-NLX; read-out: Percent Binding Inhibition

Compound | inhibition at 1 µM [%]
COc1ccc(OCC(O)CN2CCOc3ccccc32)cc1 (centres unmarked) [Compound A0076] | 44.9
CC(=O)c1ccc(C(=O)N2CCOC23CCN(S(=O)(=O)c2ccc(C(C)=O)cc2)CC3)cc1 [Compound C0053] | 39.3
CCCCc1ccc(S(=O)(=O)N2CCC3(CC2)OCCN3S(=O)(=O)c2ccc(CCCC)cc2)cc1 [Compound C0030] | 56

Same assay, conditions: preliminary study

Compound | Binding to FLNA (conclusion in words)
O=S(=O)(c1ccc(OC(F)(F)F)cc1)N1CCOC12CCN(CC1CC1)CC2 [Compound 4] | bound well to FLNA

Same assay, conditions: read-out: Percent Binding Inhibition, FLNA-binding compound 0.01 μM; 10 nM FITC-NLX

Compound | inhibition at 0.01 µM [%]
CCc1ccc(S(=O)(=O)N2CCOC23CCN(CC2CC2)CC3)cc1 [Compound C0135M] | 53.9
COc1ccccc1CC(O)CC1c2c(cc3c(c2OC)OCO3)CC[N+]1(C)C (centres unmarked) [Compound B0032] | 45.1
CN1CCC2(CC1)NCC(=O)N2Cc1ccccc1 [Compound C0105M] | 55.7

Same assay, conditions: read-out: Percent Binding Inhibition, FLNA-binding compound 0.1 μM; 10 nM FITC-NLX

Compound | inhibition at 0.1 µM [%]
CCc1ccc(S(=O)(=O)N2CCOC23CCN(CC2CC2)CC3)cc1 [Compound C0135M] | 55.1
COc1ccccc1CC(O)CC1c2c(cc3c(c2OC)OCO3)CC[N+]1(C)C (centres unmarked) [Compound B0032] | 51.3
CN1CCC2(CC1)NCC(=O)N2Cc1ccccc1 [Compound C0105M] | 62

Same assay, conditions: read-out: Percent Binding Inhibition, FLNA-binding compound 1 μM; 10 nM FITC-NLX

Compound | inhibition at 1 µM [%]
CCc1ccc(S(=O)(=O)N2CCOC23CCN(CC2CC2)CC3)cc1 [Compound C0135M] | 62.3
COc1ccccc1CC(O)CC1c2c(cc3c(c2OC)OCO3)CC[N+]1(C)C (centres unmarked) [Compound B0032] | 48.9
CN1CCC2(CC1)NCC(=O)N2Cc1ccccc1 [Compound C0105M] | 68.8

Test system: mu opiate receptor (MOR)
Assay: MOR agonist activity using [35S]GTPγS binding assay in striatal membranes
Type: biochemical
Conditions: 0.1 μM compound
Procedure, shortened: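 Striatal membranes (200 μg) were preincubated 5 min at 30 °C in HEPES pH 7.5 with 100 mM NaCl, 1 mM MgCl2 and 0.5 nM [35S]GTPγS, then 5 min more with 0.1–10 μM compound. Gαo was immunoprecipitated and bound radioactivity counted by scintillation.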

Compound | MOR agonist activity ([35S]GTPγS binding), FLNA-Binding Compound as Agonist 0.1 μM [%]
COc1ccc(OCC(O)CN2CCOc3ccccc32)cc1 (centres unmarked) [Compound A0076] | 79.8

Same assay, conditions: 0.1 μM compound relative to DAMGO

Compound | % DAMGO (0.1 μM) [%]
COc1ccc(OCC(O)CN2CCOc3ccccc32)cc1 (centres unmarked) [Compound A0076] | 46.4

Same assay, conditions: 0.1 μM; average of two runs

Compound | MOR agonist activity, FLNA-Binding Compound as Agonist 0.1 μM (preliminary study) [%]
O=S(=O)(c1ccc(OC(F)(F)F)cc1)N1CCOC12CCN(CC1CC1)CC2 [Compound 4] | 133.9

Same assay, conditions: 1 μM + βNFA; average of two runs

Compound | MOR agonist activity, FLNA-Binding Compound as Agonist 1 μM + βNFA (preliminary study) [%]
O=S(=O)(c1ccc(OC(F)(F)F)cc1)N1CCOC12CCN(CC1CC1)CC2 [Compound 4] | 49.5

Same assay, conditions: 1 μM compound

Compound | MOR agonist activity ([35S]GTPγS binding), FLNA-Binding Compound as Agonist 1 μM [%]
COc1ccc(OCC(O)CN2CCOc3ccccc32)cc1 (centres unmarked) [Compound A0076] | 172.6

Same assay, conditions: 1 μM compound + 1 μM β-funaltrexamine

Compound | MOR agonist activity ([35S]GTPγS binding), FLNA-Binding Compound as Agonist 1 μM + BFNA [%]
COc1ccc(OCC(O)CN2CCOc3ccccc32)cc1 (centres unmarked) [Compound A0076] | 41.2

Same assay, conditions: 1 μM compound + BFNA relative to DAMGO + BFNA

Compound | % DAMGO + BFNA [%]
COc1ccc(OCC(O)CN2CCOc3ccccc32)cc1 (centres unmarked) [Compound A0076] | 119.4

Same assay, conditions: 1 μM compound relative to DAMGO

Compound | % DAMGO (1 μM) [%]
COc1ccc(OCC(O)CN2CCOc3ccccc32)cc1 (centres unmarked) [Compound A0076] | 78.6

Same assay, conditions: 1 μM; average of two runs

Compound | MOR agonist activity, FLNA-Binding Compound as Agonist 1 μM (preliminary study) [%]
O=S(=O)(c1ccc(OC(F)(F)F)cc1)N1CCOC12CCN(CC1CC1)CC2 [Compound 4] | 165.2

Same assay, conditions: Series B; 0.1 μM compound, relative to DAMGO

Compound | % DAMGO (0.1 μM) [%]
COc1ccccc1CC(O)CC1c2c(cc3c(c2OC)OCO3)CC[N+]1(C)C (centres unmarked) [Compound B0032] | 115.0

Same assay, conditions: Series B; 0.1 μM compound; [35S]GTPγS binding to Gαo, striatal membranes

Compound | MOR agonist activity, percent [35S]GTPγS binding at the stated compound concentration [%]
COc1ccccc1CC(O)CC1c2c(cc3c(c2OC)OCO3)CC[N+]1(C)C (centres unmarked) [Compound B0032] | 221.1

Same assay, conditions: Series B; 1 μM compound + 1 μM β-FNA

Compound | MOR agonist activity, percent [35S]GTPγS binding at the stated compound concentration [%]
COc1ccccc1CC(O)CC1c2c(cc3c(c2OC)OCO3)CC[N+]1(C)C (centres unmarked) [Compound B0032] | 15.6

Same assay, conditions: Series B; 1 μM compound + β-FNA, relative to DAMGO + BFNA

Compound | % DAMGO + BFNA [%]
COc1ccccc1CC(O)CC1c2c(cc3c(c2OC)OCO3)CC[N+]1(C)C (centres unmarked) [Compound B0032] | 35.5

Same assay, conditions: Series B; 1 μM compound, relative to DAMGO

Compound | % DAMGO (1 μM) [%]
COc1ccccc1CC(O)CC1c2c(cc3c(c2OC)OCO3)CC[N+]1(C)C (centres unmarked) [Compound B0032] | 109.0

Same assay, conditions: Series B; 1 μM compound; [35S]GTPγS binding to Gαo, striatal membranes

Compound | MOR agonist activity, percent [35S]GTPγS binding at the stated compound concentration [%]
COc1ccccc1CC(O)CC1c2c(cc3c(c2OC)OCO3)CC[N+]1(C)C (centres unmarked) [Compound B0032] | 297.7

Same assay, conditions: Series C-1; 0.1 μM compound, relative to DAMGO

Compound | % DAMGO (0.1 μM) [%]
CC(=O)c1ccc(C(=O)N2CCOC23CCN(S(=O)(=O)c2ccc(C(C)=O)cc2)CC3)cc1 [Compound C0053] | 71.7
CCCCc1ccc(S(=O)(=O)N2CCC3(CC2)OCCN3S(=O)(=O)c2ccc(CCCC)cc2)cc1 [Compound C0030] | 96.0

Same assay, conditions: Series C-1; 0.1 μM compound; [35S]GTPγS binding to Gαo, striatal membranes

Compound | Concentration of FLNA-Binding Compound as Agonist 0.1 μM [%]
CC(=O)c1ccc(C(=O)N2CCOC23CCN(S(=O)(=O)c2ccc(C(C)=O)cc2)CC3)cc1 [Compound C0053] | 104.0
CCCCc1ccc(S(=O)(=O)N2CCC3(CC2)OCCN3S(=O)(=O)c2ccc(CCCC)cc2)cc1 [Compound C0030] | 150.3

Same assay, conditions: Series C-1; 1 μM compound + 1 μM β-FNA

Compound | Concentration of FLNA-Binding Compound as Agonist 1 μM + BFNA [%]
CC(=O)c1ccc(C(=O)N2CCOC23CCN(S(=O)(=O)c2ccc(C(C)=O)cc2)CC3)cc1 [Compound C0053] | 93.1
CCCCc1ccc(S(=O)(=O)N2CCC3(CC2)OCCN3S(=O)(=O)c2ccc(CCCC)cc2)cc1 [Compound C0030] | 95.0

Same assay, conditions: Series C-1; 1 μM compound + β-FNA, relative to DAMGO + BFNA

Compound | % DAMGO + BFNA [%]
CC(=O)c1ccc(C(=O)N2CCOC23CCN(S(=O)(=O)c2ccc(C(C)=O)cc2)CC3)cc1 [Compound C0053] | 211.6
CCCCc1ccc(S(=O)(=O)N2CCC3(CC2)OCCN3S(=O)(=O)c2ccc(CCCC)cc2)cc1 [Compound C0030] | 291.4

Same assay, conditions: Series C-1; 1 μM compound, relative to DAMGO

Compound | % DAMGO (1 μM) [%]
CC(=O)c1ccc(C(=O)N2CCOC23CCN(S(=O)(=O)c2ccc(C(C)=O)cc2)CC3)cc1 [Compound C0053] | 67.5
CCCCc1ccc(S(=O)(=O)N2CCC3(CC2)OCCN3S(=O)(=O)c2ccc(CCCC)cc2)cc1 [Compound C0030] | 98.0

Same assay, conditions: Series C-1; 1 μM compound; [35S]GTPγS binding to Gαo, striatal membranes

Compound | Concentration of FLNA-Binding Compound as Agonist 1 μM [%]
CC(=O)c1ccc(C(=O)N2CCOC23CCN(S(=O)(=O)c2ccc(C(C)=O)cc2)CC3)cc1 [Compound C0053] | 157.2
CCCCc1ccc(S(=O)(=O)N2CCC3(CC2)OCCN3S(=O)(=O)c2ccc(CCCC)cc2)cc1 [Compound C0030] | 226.8

Same assay, conditions: Series C-2; 0.1 μM compound, relative to DAMGO

Compound | % DAMGO (0.1 μM) [%]
CCc1ccc(S(=O)(=O)N2CCOC23CCN(CC2CC2)CC3)cc1 [Compound C0135M] | 85.3
CN1CCC2(CC1)NCC(=O)N2Cc1ccccc1 [Compound C0105M] | 104.7

Same assay, conditions: Series C-2; 0.1 μM compound; [35S]GTPγS binding to Gαo, striatal membranes

Compound | MOR agonist activity, percent [35S]GTPγS binding at the stated compound concentration [%]
CCc1ccc(S(=O)(=O)N2CCOC23CCN(CC2CC2)CC3)cc1 [Compound C0135M] | 161.3
CN1CCC2(CC1)NCC(=O)N2Cc1ccccc1 [Compound C0105M] | 198.1

Same assay, conditions: Series C-2; 1 μM compound + 1 μM β-FNA

Compound | MOR agonist activity, percent [35S]GTPγS binding at the stated compound concentration [%]
CCc1ccc(S(=O)(=O)N2CCOC23CCN(CC2CC2)CC3)cc1 [Compound C0135M] | 113.3
CN1CCC2(CC1)NCC(=O)N2Cc1ccccc1 [Compound C0105M] | 73.1

Same assay, conditions: Series C-2; 1 μM compound + β-FNA, relative to DAMGO + BFNA

Compound | % DAMGO + BFNA [%]
CCc1ccc(S(=O)(=O)N2CCOC23CCN(CC2CC2)CC3)cc1 [Compound C0135M] | 233.6
CN1CCC2(CC1)NCC(=O)N2Cc1ccccc1 [Compound C0105M] | 150.7

Same assay, conditions: Series C-2; 1 μM compound, relative to DAMGO

Compound | % DAMGO (1 μM) [%]
CCc1ccc(S(=O)(=O)N2CCOC23CCN(CC2CC2)CC3)cc1 [Compound C0135M] | 124.9
CN1CCC2(CC1)NCC(=O)N2Cc1ccccc1 [Compound C0105M] | 88.8

Same assay, conditions: Series C-2; 1 μM compound; [35S]GTPγS binding to Gαo, striatal membranes

Compound | MOR agonist activity, percent [35S]GTPγS binding at the stated compound concentration [%]
CCc1ccc(S(=O)(=O)N2CCOC23CCN(CC2CC2)CC3)cc1 [Compound C0135M] | 310.1
CN1CCC2(CC1)NCC(=O)N2Cc1ccccc1 [Compound C0105M] | 220.3

Same assay, conditions: preliminary study

Compound | MOR agonist activity (conclusion in words)
O=S(=O)(c1ccc(OC(F)(F)F)cc1)N1CCOC12CCN(CC1CC1)CC2 [Compound 4] | not as potent a MOR agonist
